PubChem BioAssay AID1963827 (Molecular Pharmacology Branch, DTP, NCI, 2024)

Test system: 994946-033-R-J1-PDC complex spheroid viability
Assay: Anticancer human tumor 994946-033-R-J1-PDC patient-derived melanoma cell line growth inhibition [POLQ]
Settings: for IC50: curve of first compound; for viability, T/C: stronger effect = lower value
How it was run: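 Growth inhibition in 3D: complex spheroids (tumor PDC, HUVEC, MSC) treated with POLQ inhibitor combinations; where Cmax unknown, highest tested concentration 10 microM, except SN-38 at 1 microM.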

[1] = second compound 0.0316 µM, first compound 0.0316 µM
[2] = second compound 0.0316 µM, first compound 0.1 µM
[3] = second compound 0.0316 µM, first compound 0.316 µM
[4] = second compound 0.0316 µM, first compound 1 µM
[5] = second compound 0.0316 µM, first compound 3.16 µM
[6] = second compound 0.0316 µM, first compound 10 µM
[7] = second compound 0.1 µM, first compound 0.0316 µM
[8] = second compound 0.1 µM, first compound 0.1 µM
[9] = second compound 0.1 µM, first compound 0.316 µM
[10] = second compound 0.1 µM, first compound 1 µM
[11] = second compound 0.1 µM, first compound 3.16 µM
[12] = second compound 0.1 µM, first compound 10 µM
[13] = second compound 0.316 µM, first compound 0.0316 µM
[14] = second compound 0.316 µM, first compound 0.1 µM
[15] = second compound 0.316 µM, first compound 0.316 µM
[16] = second compound 0.316 µM, first compound 1 µM
[17] = second compound 0.316 µM, first compound 3.16 µM
[18] = second compound 0.316 µM, first compound 10 µM
[19] = second compound 1 µM, first compound 0.0316 µM
[20] = second compound 1 µM, first compound 0.1 µM
[21] = second compound 1 µM, first compound 0.316 µM
[22] = second compound 1 µM, first compound 1 µM
[23] = second compound 1 µM, first compound 3.16 µM
[24] = second compound 1 µM, first compound 10 µM
[25] = second compound 3.16 µM, first compound 0.0316 µM
[26] = second compound 3.16 µM, first compound 0.1 µM
[27] = second compound 3.16 µM, first compound 0.316 µM
[28] = second compound 3.16 µM, first compound 1 µM
[29] = second compound 3.16 µM, first compound 3.16 µM
[30] = second compound 3.16 µM, first compound 10 µM
[31] = second compound 10 µM, first compound 0.0316 µM
[32] = second compound 10 µM, first compound 0.1 µM
[33] = second compound 10 µM, first compound 0.316 µM
[34] = second compound 10 µM, first compound 1 µM
[35] = second compound 10 µM, first compound 3.16 µM
[36] = second compound 10 µM, first compound 10 µM
[37] = second compound 0.0316 µM, first compound 0.00316 µM
[38] = second compound 0.0316 µM, first compound 0.01 µM
[39] = second compound 0.1 µM, first compound 0.00316 µM
[40] = second compound 0.1 µM, first compound 0.01 µM
[41] = second compound 0.316 µM, first compound 0.00316 µM
[42] = second compound 0.316 µM, first compound 0.01 µM
[43] = second compound 1 µM, first compound 0.00316 µM
[44] = second compound 1 µM, first compound 0.01 µM
[45] = second compound 3.16 µM, first compound 0.00316 µM
[46] = second compound 3.16 µM, first compound 0.01 µM
[47] = second compound 10 µM, first compound 0.00316 µM
[48] = second compound 10 µM, first compound 0.01 µM
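Also: spheroids exposed to drugs for 7 days.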
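For viability, T/C in this document: 100% = DMSO vehicle treated spheroids.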

## COc1cc2cc(C(=O)CCC(=O)O)sc2cc1OC + COC1C(OC(N)=O)C(O)C(Oc2ccc3c(O)c(NC(=O)c4ccc(O)c(CC=C(C)C)c4)c(=O)oc3c2C)OC1(C)C
Second compound 0.0316 µM
  IC50: > 10000 nM
Second compound 0.1 µM
  IC50: > 10000 nM
Second compound 0.316 µM
  IC50: > 10000 nM
Second compound 1 µM
  IC50: > 10000 nM
Second compound 3.16 µM
  IC50: > 10000 nM
Second compound 10 µM
  IC50: > 10000 nM
[1]
  viability, T/C: 91.3%
[2]
  viability, T/C: 83%
[3]
  viability, T/C: 98.6%
[4]
  viability, T/C: 118%
[5]
  viability, T/C: 98.8%
[6]
  viability, T/C: 96.8%
[7]
  viability, T/C: 89.9%
[8]
  viability, T/C: 101%
[9]
  viability, T/C: 109%
[10]
  viability, T/C: 116%
[11]
  viability, T/C: 86.8%
[12]
  viability, T/C: 77.5%
[13]
  viability, T/C: 93.5%
[14]
  viability, T/C: 102%
[15]
  viability, T/C: 84.5%
[16]
  viability, T/C: 82.4%
[17]
  viability, T/C: 105%
[18]
  viability, T/C: 86.4%
[19]
  viability, T/C: 93.4%
[20]
  viability, T/C: 90.8%
[21]
  viability, T/C: 94.1%
[22]
  viability, T/C: 76.9%
[23]
  viability, T/C: 83.3%
[24]
  viability, T/C: 100%
[25]
  viability, T/C: 101%
[26]
  viability, T/C: 75.9%
[27]
  viability, T/C: 106%
[28]
  viability, T/C: 82.4%
[29]
  viability, T/C: 87.5%
[30]
  viability, T/C: 78.6%
[31]
  viability, T/C: 90.8%
[32]
  viability, T/C: 109%
[33]
  viability, T/C: 83.7%
[34]
  viability, T/C: 71.4%
[35]
  viability, T/C: 105%
[36]
  viability, T/C: 80.6%

## COc1cccc(OCCCN)c1-c1cc(Nc2cnc(C#N)cn2)n[nH]1 + Cc1cccc(N(C)C(=O)C2C(O)CCN2c2nc(C)cc(C(F)(F)F)c2C#N)c1
Second compound 0.0316 µM
  IC50: 25.6 nM
Second compound 0.1 µM
  IC50: 14.7 nM
Second compound 0.316 µM
  IC50: 17.7 nM
Second compound 1 µM
  IC50: 9.64 nM
Second compound 3.16 µM
  IC50: 14.3 nM
Second compound 10 µM
  IC50: 79.8 nM
[37]
  viability, T/C: 96%
[38]
  viability, T/C: 93.4%
[1]
  viability, T/C: 40.3%
[2]
  viability, T/C: 22.7%
[3]
  viability, T/C: 22%
[4]
  viability, T/C: 17.4%
[39]
  viability, T/C: 99.8%
[40]
  viability, T/C: 60.3%
[7]
  viability, T/C: 29.9%
[8]
  viability, T/C: 19%
[9]
  viability, T/C: 19.1%
[10]
  viability, T/C: 18.6%
[41]
  viability, T/C: 76.6%
[42]
  viability, T/C: 68.5%
[13]
  viability, T/C: 31.3%
[14]
  viability, T/C: 20.1%
[15]
  viability, T/C: 24.2%
[16]
  viability, T/C: 12.4%
[43]
  viability, T/C: 120%
[44]
  viability, T/C: 44.5%
[19]
  viability, T/C: 36.8%
[20]
  viability, T/C: 33.1%
[21]
  viability, T/C: 27%
[22]
  viability, T/C: 18.6%
[45]
  viability, T/C: 88.9%
[46]
  viability, T/C: 51%
[25]
  viability, T/C: 46.8%
[26]
  viability, T/C: 18.1%
[27]
  viability, T/C: 28.9%
[28]
  viability, T/C: 18.5%
[47]
  viability, T/C: 68%
[48]
  viability, T/C: 57.6%
[31]
  viability, T/C: 86.7%
[32]
  viability, T/C: 44.9%
[33]
  viability, T/C: 38.2%
[34]
  viability, T/C: 23.5%

## CC[C@@]1(O)C(=O)OCc2c1cc1n(c2=O)Cc2cc3c(CN(C)C)c(O)ccc3nc2-1 + Nc1ccc(C#CCN(C(=O)Cc2ncc(C(F)(F)F)cc2C(F)(F)F)c2ccc(F)cc2)nn1
Second compound 0.0316 µM
  IC50: 26.5 nM
Second compound 0.1 µM
  IC50: 29.4 nM
Second compound 0.316 µM
  IC50: 21.4 nM
Second compound 1 µM
  IC50: 22.5 nM
Second compound 3.16 µM
  IC50: 21.5 nM
Second compound 10 µM
  IC50: 30.3 nM
Second compound 0.0316 µM, first compound 0.000316 µM
  viability, T/C: 95.3%
Second compound 0.0316 µM, first compound 0.001 µM
  viability, T/C: 94.5%
[37]
  viability, T/C: 99.9%
[38]
  viability, T/C: 79%
[1]
  viability, T/C: 45%
[2]
  viability, T/C: 9.6%
Second compound 0.1 µM, first compound 0.000316 µM
  viability, T/C: 91.7%
Second compound 0.1 µM, first compound 0.001 µM
  viability, T/C: 113%
[39]
  viability, T/C: 78.2%
[40]
  viability, T/C: 98.9%
[7]
  viability, T/C: 46.9%
[8]
  viability, T/C: 15.4%
Second compound 0.316 µM, first compound 0.000316 µM
  viability, T/C: 101%
Second compound 0.316 µM, first compound 0.001 µM
  viability, T/C: 109%
[41]
  viability, T/C: 89.9%
[42]
  viability, T/C: 79.5%
[13]
  viability, T/C: 34.6%
[14]
  viability, T/C: 17.1%
Second compound 1 µM, first compound 0.000316 µM
  viability, T/C: 130%
Second compound 1 µM, first compound 0.001 µM
  viability, T/C: 90.3%
[43]
  viability, T/C: 106%
[44]
  viability, T/C: 87.8%
[19]
  viability, T/C: 33.7%
[20]
  viability, T/C: 11.7%
Second compound 3.16 µM, first compound 0.000316 µM
  viability, T/C: 92%
Second compound 3.16 µM, first compound 0.001 µM
  viability, T/C: 119%
[45]
  viability, T/C: 96.8%
[46]
  viability, T/C: 86.8%
[25]
  viability, T/C: 31.4%
[26]
  viability, T/C: 13.7%
Second compound 10 µM, first compound 0.000316 µM
  viability, T/C: 100%
Second compound 10 µM, first compound 0.001 µM
  viability, T/C: 113%
[47]
  viability, T/C: 98.5%
[48]
  viability, T/C: 110%
[31]
  viability, T/C: 47.7%
[32]
  viability, T/C: 14.4%

## O=c1[nH]cc(F)c(=O)[nH]1 + Cc1cccc(N(C)C(=O)C2C(O)CCN2c2nc(C)cc(C(F)(F)F)c2C#N)c1
Second compound 0.0316 µM
  IC50: 4630 nM
Second compound 0.1 µM
  IC50: 2490 nM
Second compound 0.316 µM
  IC50: 2290 nM
Second compound 1 µM
  IC50: > 10000 nM
Second compound 3.16 µM
  IC50: 1460 nM
Second compound 10 µM
  IC50: 10000 nM
[1]
  viability, T/C: 97.5%
[2]
  viability, T/C: 91.7%
[3]
  viability, T/C: 63.8%
[4]
  viability, T/C: 71.5%
[5]
  viability, T/C: 48.6%
[6]
  viability, T/C: 45.2%
[7]
  viability, T/C: 91.6%
[8]
  viability, T/C: 106%
[9]
  viability, T/C: 101%
[10]
  viability, T/C: 69.1%
[11]
  viability, T/C: 49.4%
[12]
  viability, T/C: 36.3%
[13]
  viability, T/C: 85.5%
[14]
  viability, T/C: 78.7%
[15]
  viability, T/C: 89.8%
[16]
  viability, T/C: 62.4%
[17]
  viability, T/C: 45.6%
[18]
  viability, T/C: 44.6%
[19]
  viability, T/C: 95%
[20]
  viability, T/C: 63.2%
[21]
  viability, T/C: 63%
[22]
  viability, T/C: 56.8%
[23]
  viability, T/C: 52.3%
[24]
  viability, T/C: 47.8%
[25]
  viability, T/C: 99.3%
[26]
  viability, T/C: 95%
[27]
  viability, T/C: 66%
[28]
  viability, T/C: 55.2%
[29]
  viability, T/C: 45.3%
[30]
  viability, T/C: 47.3%
[31]
  viability, T/C: 97.1%
[32]
  viability, T/C: 103%
[33]
  viability, T/C: 52.7%
[34]
  viability, T/C: 58.5%
[35]
  viability, T/C: 49.7%
[36]
  viability, T/C: 43%
